# Assay results taken from patent US6610689B2, “HIV protease inhibitors based on amino acid derivatives” (priority 2001, dated 2003).
# Biological target: T1, HIV protease (Human immunodeficiency virus type 1 group M subtype B, UniProt P04585)
# T1 construct: A third viral enzyme known as protease then cleaves the polyproteins
# Experiment: Enzymatic Assay for Determining the Inhibition Constant (Ki) of Synthetic Compounds Targeting the HIV Protease (fluorometric FRET assay)
# Format: biochemical
# Method in brief: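 Ki obtained via the Henderson equation from enzyme velocities with and without compound, accounting for substrate concentration and Km. Activity followed by FRET fluorescence from cleavage of a substrate flanked by EDANS donor and DABCYL acceptor.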
structure (smiles),measurement,value
"Cc1ccc(S(=O)(=O)N(CC(C)C)[C@@H](CCCCNC(=O)[C@H](Cc2ccccc2)NS(=O)(=O)c2ccc3ccccc3c2)C(=O)O)cc1 [Example 19, Nα-Isobutyl-Nα-(4-methylbenzenesulfonyl)-Nε-[N′α-(2-naphthylsulfonyl)-L-phenylalanyl]-L-lysine]",Ki,11 nM
"Cc1ccc(S(=O)(=O)N[C@@H](Cc2cc3ccccc3s2)C(=O)NCCCC[C@@H](C(=O)O)N(CC(C)C)S(=O)(=O)c2ccc(C)cc2)cc1 [Example 42, Nα-Isobutyl-Nα-(4-methylbenzenesulfonyl)-Nε-[N′α-(4-methylbenzenesulfonyl)-L-3-(2-thianaphthyl)-alanyl]-L-lysine]",Ki,256 nM
"COc1ccc(S(=O)(=O)N(CC2CCCC2)[C@H](CO)CCCCNC(=O)[C@H](Cc2c[nH]c3ccccc23)NC(=O)OC(C)(C)C)cc1 [Example 153, (2S,2′S) 2-N-Cyclopentylmethyl-2-N-(4-methoxybenzenesulfonyl)-6-N-(N′α-tert-butoxycarbonyl-S-tryptophanyl)-2,6-diaminohexanol]",Ki,24 nM
"Cc1ccc(S(=O)(=O)N[C@@H](Cc2c[nH]c3ccccc23)C(=O)NCCCC[C@@H](C(=O)O)N(CC(C)C)S(=O)(=O)c2ccc(N)cc2)cc1 [Example 43, Nα-(4-Aminobenzenesulfonyl)-Nα-isobutyl-Nε-[N′α-(4-methylbenzenesulfonyl)-L-tryptophanyl]-L-lysine]",Ki,0.56 nM
"CC(=O)Nc1ccc(S(=O)(=O)N[C@@H](Cc2ccccc2)C(=O)NCCCC[C@@H](CO)N(CC(C)C)S(=O)(=O)c2ccc(C)cc2)cc1 [Example 121, (2S,2′S) 2-N-Isobutyl-2-N-(4-methylbenzenesulfonyl)-6-N-[N′α-(4-acetylaminobenzenesulfonyl)-S-phenylalanyl]-2,6-diaminohexanol]",Ki,23 nM
"COc1cccc(CNCC(=O)NCCCC[C@@H](C(=O)O)N(CC(C)C)S(=O)(=O)c2ccc(C)cc2)c1OC [Example 107, Nα-Isobutyl-Nα-(4-methylbenzenesulfonyl)-Nε-[N′α-(2,3-dimethoxybenzyl)glycyl]-L-lysine]",Ki,52 nM
"COc1ccc(CC(=O)N[C@@H](Cc2c[nH]c3ccccc23)C(=O)NCCCC[C@@H](CO)N(CC(C)C)S(=O)(=O)c2ccc(C)cc2)cc1 [Example 165, (2S,2′S) 2-N-Isobutyl-2-N-(4-methylbenzenesulfonyl)-6-N-[N′α-(4-methoxyphenylacetyl)-S-tryptophanyl]-2,6-diaminohexanol]",Ki,1.1 nM
"Cc1ccc(S(=O)(=O)NC(Cc2c[nH]c3ccccc23)C(=O)NCCCCC(C(=O)OCC(O)CO)N(CC(C)C)S(=O)(=O)c2ccc(C)cc2)cc1 [Example 45, Nα-Isobutyl-Nα-(4-methylbenzenesulfonyl)-Nε-[N′α-(4-methylbenzenesulfonyl)-L-tryptophanyl]-L-lysine 2,3-Dihydroxypropyl Ester]",Ki,> 300 nM
"CC(C)CN([C@@H](CCCCNC(=O)[C@H](Cc1ccccc1)NS(=O)(=O)c1cccs1)C(=O)NN)S(=O)(=O)c1ccc(N)cc1 [Example 49, Nα-(4-Aminobenzenesulfonyl)-Nα-isobutyl-Nε-[N′α-(2-thiophenesulfonyl)-L-phenylalanyl]-L-lysine Hydrazide]",Ki,17 nM
